Experimental data taken from ChEMBL document CHEMBL1201862, “PubChem BioAssay data set” (2004).
Activity calls are given as the source filed them.

What was measured:
[1] = biological target: Eukaryotic translation initiation factor 4H (Homo sapiens, UniProt Q15056); assay: inhibitors of translation initiation factor eIF4H – SAR follow-up (AID 435011); type: functional
[2] = biological target: Polyadenylate-binding protein 1 (Homo sapiens, UniProt P11940); assay: PABP inhibition in translation initiation, SAR follow-up (AID 435018); type: functional
Sequence of Polyadenylate-binding protein 1 (P11940 whole entry): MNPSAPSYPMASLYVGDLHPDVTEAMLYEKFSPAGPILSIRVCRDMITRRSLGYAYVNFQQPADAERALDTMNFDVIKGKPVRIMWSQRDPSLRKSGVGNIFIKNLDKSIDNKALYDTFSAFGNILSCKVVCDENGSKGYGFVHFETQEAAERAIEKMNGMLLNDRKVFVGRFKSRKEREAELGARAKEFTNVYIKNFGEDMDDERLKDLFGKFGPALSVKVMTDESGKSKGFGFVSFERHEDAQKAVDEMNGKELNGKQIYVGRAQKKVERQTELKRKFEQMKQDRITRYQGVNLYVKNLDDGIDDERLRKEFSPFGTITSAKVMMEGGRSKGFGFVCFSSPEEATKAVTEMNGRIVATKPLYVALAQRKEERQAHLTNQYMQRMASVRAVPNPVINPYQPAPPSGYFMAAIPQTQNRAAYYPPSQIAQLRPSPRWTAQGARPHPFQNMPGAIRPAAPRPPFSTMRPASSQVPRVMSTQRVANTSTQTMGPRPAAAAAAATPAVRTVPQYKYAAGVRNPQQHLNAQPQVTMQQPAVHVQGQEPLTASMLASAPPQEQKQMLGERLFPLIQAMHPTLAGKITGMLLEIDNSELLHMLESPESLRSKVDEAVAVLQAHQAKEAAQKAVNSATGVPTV

[3] = biological target: T1, E3 ubiquitin-protein ligase XIAP (Homo sapiens, UniProt P98170); assay: Counter Screen using XIAP-Bir3 for Chemical Antagonists of Bir1/2 domains of IAP-family anti-apoptotic proteins. [Related pubchem assays (depositor defined):AID1018, AID1449, AID1514, AID1638, AID1749, AID1750, AID488957, AID488963]
T1 sequence (P98170 whole entry): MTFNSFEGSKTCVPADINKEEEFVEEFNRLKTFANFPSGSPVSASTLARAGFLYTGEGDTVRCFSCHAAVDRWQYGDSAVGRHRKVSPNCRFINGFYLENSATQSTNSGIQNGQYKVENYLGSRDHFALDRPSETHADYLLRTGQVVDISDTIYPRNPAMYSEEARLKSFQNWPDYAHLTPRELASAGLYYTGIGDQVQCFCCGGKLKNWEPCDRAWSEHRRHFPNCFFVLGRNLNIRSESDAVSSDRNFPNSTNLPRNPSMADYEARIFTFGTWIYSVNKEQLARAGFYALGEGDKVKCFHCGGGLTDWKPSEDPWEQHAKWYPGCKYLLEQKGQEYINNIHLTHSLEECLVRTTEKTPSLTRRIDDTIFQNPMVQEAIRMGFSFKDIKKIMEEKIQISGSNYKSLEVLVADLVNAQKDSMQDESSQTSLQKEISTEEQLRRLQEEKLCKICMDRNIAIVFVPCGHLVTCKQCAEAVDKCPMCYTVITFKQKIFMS

[4] = biological target: T1, E3 ubiquitin-protein ligase XIAP; assay: small molecules displacing peptide from XIAP – biochemical, IAP family, fluorescence polarization (AID 1018); type: functional
[5] = biological target: T2, Corticotropin-releasing factor receptor 2/Corticotropin-releasing factor-binding protein (Homo sapiens, UniProt P24387+Q13324); assay: activators of CRF receptor 2 with binding protein – uHTS hits, confirmation (AID 602473); type: functional; settings: read-out: EC50_Mean
T2 sequence (Q13324 whole entry): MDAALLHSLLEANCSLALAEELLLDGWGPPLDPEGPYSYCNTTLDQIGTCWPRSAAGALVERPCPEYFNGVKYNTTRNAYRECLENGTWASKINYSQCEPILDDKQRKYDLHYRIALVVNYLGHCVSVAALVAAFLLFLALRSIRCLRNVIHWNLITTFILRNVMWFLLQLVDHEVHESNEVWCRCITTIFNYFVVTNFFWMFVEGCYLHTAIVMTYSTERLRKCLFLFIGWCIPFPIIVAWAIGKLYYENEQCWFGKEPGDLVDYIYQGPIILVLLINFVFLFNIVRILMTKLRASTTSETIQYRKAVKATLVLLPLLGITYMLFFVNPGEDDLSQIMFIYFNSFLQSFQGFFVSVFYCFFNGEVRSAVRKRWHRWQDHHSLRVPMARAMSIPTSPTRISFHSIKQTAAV
T2 sequence (P24387 whole entry): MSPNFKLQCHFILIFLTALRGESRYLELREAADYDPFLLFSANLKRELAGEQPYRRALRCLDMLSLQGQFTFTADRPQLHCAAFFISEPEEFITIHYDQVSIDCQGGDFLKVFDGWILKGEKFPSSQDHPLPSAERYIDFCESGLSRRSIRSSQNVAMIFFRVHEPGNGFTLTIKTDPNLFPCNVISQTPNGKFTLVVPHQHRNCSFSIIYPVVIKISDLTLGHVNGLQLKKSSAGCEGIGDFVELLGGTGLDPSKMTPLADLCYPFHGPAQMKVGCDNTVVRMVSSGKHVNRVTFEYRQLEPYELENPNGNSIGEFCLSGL

[6] = biological target: T3, RNA-binding protein pos-1 (Caenorhabditis elegans, UniProt G5EF15); assay: disruptors of C. elegans POS-1 RNA interaction – biochemical, fluorescence polarization, dose response (AID 1964);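 also: purified POS-1 fused to maltose binding protein made in E. coli; potency of compounds blocking POS-1 binding to fluorescent RNA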
T3 sequence (G5EF15 whole entry): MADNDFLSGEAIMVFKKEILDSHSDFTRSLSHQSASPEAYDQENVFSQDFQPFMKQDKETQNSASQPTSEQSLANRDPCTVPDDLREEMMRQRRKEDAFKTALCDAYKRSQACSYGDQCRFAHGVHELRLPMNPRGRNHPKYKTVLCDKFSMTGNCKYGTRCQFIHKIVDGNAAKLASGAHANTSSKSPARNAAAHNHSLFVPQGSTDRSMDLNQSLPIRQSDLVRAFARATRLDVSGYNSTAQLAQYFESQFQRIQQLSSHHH

[7] = biological target: T4, Zinc finger protein mex-5 (Caenorhabditis elegans, UniProt Q9XUB2); assay: potency of MEX-5 RNA-binding blockers – biochemical, C. elegans, fluorescence polarization, dose response (AID 1960)
T4 sequence (Q9XUB2 whole entry): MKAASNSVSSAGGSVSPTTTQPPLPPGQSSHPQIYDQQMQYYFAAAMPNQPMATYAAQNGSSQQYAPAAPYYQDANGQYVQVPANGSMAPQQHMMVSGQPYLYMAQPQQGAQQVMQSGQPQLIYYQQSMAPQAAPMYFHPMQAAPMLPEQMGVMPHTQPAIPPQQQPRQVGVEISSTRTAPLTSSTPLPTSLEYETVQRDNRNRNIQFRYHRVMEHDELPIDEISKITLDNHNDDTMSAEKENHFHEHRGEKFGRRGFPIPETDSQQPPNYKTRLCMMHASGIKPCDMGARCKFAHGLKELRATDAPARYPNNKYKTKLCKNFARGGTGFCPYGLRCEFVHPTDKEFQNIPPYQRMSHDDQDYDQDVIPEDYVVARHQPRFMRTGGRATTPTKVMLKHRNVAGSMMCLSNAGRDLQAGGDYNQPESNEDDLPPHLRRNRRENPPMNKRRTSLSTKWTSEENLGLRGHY

[8] = NIH-3T3 fibroblast cytotoxicity, dose response, cytotoxicity control, cell-based, fluorescence, Alamar Blue, secondary assay (AID 2327); type: functional;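 also: NIH-3T3 mouse fibroblasts cultured with fluconazole at 8 µg/mL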
HEK293 [9] = assay: inhibition of NOD1-driven NF-kB reporter – cell-based, luminescence, uHTS, primary screen (AID 1578); type: functional; settings: Homo sapiens
HEK293 [10] = assay: cells; type: functional, cell-based; settings: Homo sapiens
[11] = fluconazole-exposed Candida albicans growth modulators – fluorescence, retest, confirmation (AID 2467); type: functional, cell-based
HEK293 [12] = assay: cells; type: functional, cell-based; settings: Homo sapiens; remark: listed apart in the source
[13] = biological target: Nucleotide-binding oligomerization domain-containing protein 2 (Homo sapiens, UniProt Q9HC29); assay: inhibition of NOD2-driven NF-kB reporter – cell-based, luminescence, uHTS, HEK293 (AID 1566); type: functional
Sequence of Nucleotide-binding oligomerization domain-containing protein 2 (Q9HC29 whole entry, the tested form may be a part): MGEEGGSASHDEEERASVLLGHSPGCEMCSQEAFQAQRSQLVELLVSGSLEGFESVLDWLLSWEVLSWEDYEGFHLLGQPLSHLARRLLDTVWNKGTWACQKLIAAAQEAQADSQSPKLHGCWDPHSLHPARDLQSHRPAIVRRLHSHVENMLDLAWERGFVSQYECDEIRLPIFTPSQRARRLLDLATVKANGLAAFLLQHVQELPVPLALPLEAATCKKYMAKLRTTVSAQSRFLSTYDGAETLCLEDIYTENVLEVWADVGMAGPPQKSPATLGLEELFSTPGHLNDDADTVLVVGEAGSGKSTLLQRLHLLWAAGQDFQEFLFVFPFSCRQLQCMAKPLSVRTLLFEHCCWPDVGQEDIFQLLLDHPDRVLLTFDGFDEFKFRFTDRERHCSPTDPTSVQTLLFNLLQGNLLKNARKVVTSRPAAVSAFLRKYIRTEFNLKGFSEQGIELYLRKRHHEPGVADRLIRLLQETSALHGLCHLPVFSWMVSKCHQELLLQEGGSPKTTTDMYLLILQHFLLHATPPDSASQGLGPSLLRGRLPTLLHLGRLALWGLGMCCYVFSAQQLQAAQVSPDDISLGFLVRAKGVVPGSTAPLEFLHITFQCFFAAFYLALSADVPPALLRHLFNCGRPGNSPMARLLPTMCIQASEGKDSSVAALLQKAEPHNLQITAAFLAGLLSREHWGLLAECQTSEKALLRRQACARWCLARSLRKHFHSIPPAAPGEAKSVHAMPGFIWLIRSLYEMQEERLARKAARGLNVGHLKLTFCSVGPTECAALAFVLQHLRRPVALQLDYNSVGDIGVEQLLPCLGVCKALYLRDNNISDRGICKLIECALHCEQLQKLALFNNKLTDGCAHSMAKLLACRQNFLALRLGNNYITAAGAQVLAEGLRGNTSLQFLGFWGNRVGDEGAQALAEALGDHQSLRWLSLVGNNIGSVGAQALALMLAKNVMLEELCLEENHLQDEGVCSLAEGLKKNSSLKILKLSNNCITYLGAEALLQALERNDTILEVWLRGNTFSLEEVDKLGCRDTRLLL

HEK293 [14] = assay: NOD2 signaling inhibitors in MDP-stimulated cells, cell-based, uHTS, luminescence (AID 2001); type: functional; settings: Homo sapiens
HEK293 [15] = assay: cells; type: functional, cell-based; settings: Homo sapiens; remark: listed apart in the source
[16] = biological target: T5, Serine/threonine-protein phosphatase (Candida dubliniensis (strain CD36 / CBS 7987 / NCPF 3949 / NRRLY-17841) (Yeast), UniProt B9W6M3); assay: blockers of CaCl2-induced CDRE-lacZ signaling – S. cerevisiae, luminescence, secondary, dose response (AID 2388); type: functional, cell-based;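 also: yeast reporter cells carrying a calcineurin-responsive lacZ construct stimulated with calcium chloride; luminescent beta-galactosidase reporter signal in whole cells rather than isolated phosphatase activity; potency for inhibition where a drop in reporter signal means calcineurin blockade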
T5 sequence (B9W6M3 whole entry): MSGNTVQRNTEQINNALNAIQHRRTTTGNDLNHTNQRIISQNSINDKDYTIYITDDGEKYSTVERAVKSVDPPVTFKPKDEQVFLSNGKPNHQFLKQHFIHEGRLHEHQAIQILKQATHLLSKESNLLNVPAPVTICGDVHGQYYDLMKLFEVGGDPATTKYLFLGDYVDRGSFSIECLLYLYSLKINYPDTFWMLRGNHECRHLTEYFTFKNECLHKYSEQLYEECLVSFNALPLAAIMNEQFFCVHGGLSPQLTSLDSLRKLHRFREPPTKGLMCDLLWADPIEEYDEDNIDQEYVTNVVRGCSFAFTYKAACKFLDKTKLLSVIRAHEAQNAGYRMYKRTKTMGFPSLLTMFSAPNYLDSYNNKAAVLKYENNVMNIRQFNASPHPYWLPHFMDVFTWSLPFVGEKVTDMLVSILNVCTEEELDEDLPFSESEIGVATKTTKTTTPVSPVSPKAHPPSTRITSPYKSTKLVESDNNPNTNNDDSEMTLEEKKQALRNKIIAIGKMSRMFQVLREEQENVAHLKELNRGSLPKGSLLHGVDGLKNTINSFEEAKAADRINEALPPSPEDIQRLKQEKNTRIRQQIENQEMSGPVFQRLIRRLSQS

Tumor necrosis factor = Tumor necrosis factor (Homo sapiens, UniProt P01375); assay: analog potency on TNFa NF-kB signaling – cell-based, revised, SAR follow-up (AID 2337); type: functional
Sequence of Tumor necrosis factor (P01375 whole entry, the tested form may be a part): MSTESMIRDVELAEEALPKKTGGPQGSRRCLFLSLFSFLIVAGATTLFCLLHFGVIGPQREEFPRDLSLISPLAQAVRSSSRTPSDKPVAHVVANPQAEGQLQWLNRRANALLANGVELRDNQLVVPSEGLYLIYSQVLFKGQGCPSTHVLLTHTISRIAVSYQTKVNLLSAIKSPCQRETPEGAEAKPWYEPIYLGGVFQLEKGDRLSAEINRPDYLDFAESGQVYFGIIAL

[17] = biological target: T6, Nucleotide-binding oligomerization domain-containing protein 1 (Homo sapiens, UniProt Q9Y239); assay: blockers of NOD1 pathway activity – revised, SAR follow-up (AID 2333); type: functional
T6 sequence (Q9Y239 whole entry): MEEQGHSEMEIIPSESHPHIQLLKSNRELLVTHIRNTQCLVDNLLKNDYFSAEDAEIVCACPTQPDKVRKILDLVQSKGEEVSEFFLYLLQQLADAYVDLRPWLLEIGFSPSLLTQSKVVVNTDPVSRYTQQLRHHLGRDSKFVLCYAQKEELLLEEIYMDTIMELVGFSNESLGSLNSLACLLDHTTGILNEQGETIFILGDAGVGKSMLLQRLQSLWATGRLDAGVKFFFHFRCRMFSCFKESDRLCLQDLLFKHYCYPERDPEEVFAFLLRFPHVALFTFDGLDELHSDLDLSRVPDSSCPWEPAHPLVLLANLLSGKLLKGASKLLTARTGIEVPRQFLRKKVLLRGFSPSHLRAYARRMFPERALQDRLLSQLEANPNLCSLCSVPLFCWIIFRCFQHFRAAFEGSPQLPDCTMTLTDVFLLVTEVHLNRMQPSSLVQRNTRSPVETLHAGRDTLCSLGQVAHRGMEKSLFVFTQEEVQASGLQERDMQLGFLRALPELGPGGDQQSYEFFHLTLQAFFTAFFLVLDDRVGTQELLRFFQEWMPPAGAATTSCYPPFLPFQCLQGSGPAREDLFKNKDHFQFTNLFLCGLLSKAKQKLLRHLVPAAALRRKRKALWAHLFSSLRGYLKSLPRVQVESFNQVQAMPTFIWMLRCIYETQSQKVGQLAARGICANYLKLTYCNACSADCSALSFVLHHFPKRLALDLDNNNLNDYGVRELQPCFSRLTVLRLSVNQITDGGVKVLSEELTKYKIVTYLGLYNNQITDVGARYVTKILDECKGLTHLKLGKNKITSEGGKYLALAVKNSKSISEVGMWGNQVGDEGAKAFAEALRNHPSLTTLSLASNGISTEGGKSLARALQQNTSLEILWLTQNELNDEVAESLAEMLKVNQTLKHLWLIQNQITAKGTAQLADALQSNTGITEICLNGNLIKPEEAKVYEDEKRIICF

[18] = biological target: ATP-dependent molecular chaperone HSP82 (Candida albicans (strain WO-1) (Yeast), UniProt C4YTQ8); assay: steroid-induced GRE reporter decrease in yeast – S. cerevisiae, luminescence, Hsp90 inhibitor project, dose response (AID 2400); type: functional, cell-based;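 also: beta-galactosidase luminescence from glucocorticoid response element reporter as proxy for Hsp90 function; inhibitor potency where signal loss means Hsp90 inhibition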
Sequence of ATP-dependent molecular chaperone HSP82 (C4YTQ8 whole entry): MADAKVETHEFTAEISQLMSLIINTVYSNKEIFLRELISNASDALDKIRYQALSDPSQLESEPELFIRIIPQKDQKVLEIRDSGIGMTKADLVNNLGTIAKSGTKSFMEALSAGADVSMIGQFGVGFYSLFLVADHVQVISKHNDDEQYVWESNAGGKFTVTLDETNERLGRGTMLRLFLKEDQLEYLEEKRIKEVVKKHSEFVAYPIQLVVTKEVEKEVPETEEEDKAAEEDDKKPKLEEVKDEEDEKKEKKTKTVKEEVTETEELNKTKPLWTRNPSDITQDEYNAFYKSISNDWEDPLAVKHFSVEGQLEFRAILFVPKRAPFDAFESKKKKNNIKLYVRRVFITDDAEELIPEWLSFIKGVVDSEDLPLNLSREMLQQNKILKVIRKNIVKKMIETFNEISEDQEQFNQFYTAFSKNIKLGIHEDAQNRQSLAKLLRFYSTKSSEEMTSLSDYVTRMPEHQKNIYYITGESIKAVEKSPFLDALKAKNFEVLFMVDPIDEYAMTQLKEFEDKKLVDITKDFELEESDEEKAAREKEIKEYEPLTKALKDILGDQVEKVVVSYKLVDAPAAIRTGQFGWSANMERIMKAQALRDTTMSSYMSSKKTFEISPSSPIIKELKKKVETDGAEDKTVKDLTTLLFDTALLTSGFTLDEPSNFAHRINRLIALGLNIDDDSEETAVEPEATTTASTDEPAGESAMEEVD

[19] = reduction of Shn3 3'UTR-driven luciferase in osteoblasts – cell-based, Clone20 osteoblasts, firefly luciferase, cherry-picked, dose response (AID 624132); type: functional;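 also: firefly luciferase luminescence from reporter carrying the Shn3 3'UTR in osteoblasts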
[20] = loss of viability in HepG2 cells – cell-based, CellTiter-Glo, cherry-picked, cytotoxicity control for Shn3 inhibitor project, dose response (AID 624134); type: functional
[21] = non-specific 3'UTR reporter inhibition in Clone20-Shn3RL – cell-based, Renilla luciferase, cherry-picked, counter-screen for Shn3 inhibitor project, dose response (AID 624133); type: functional
HEK293 [22] = assay: cells; settings: Homo sapiens
[23] = biological target: DNA dC->dU-editing enzyme APOBEC-3A (Homo sapiens, UniProt P31941); assay: A3A deaminase inhibition for selectivity – biochemical, dose response (AID 504722); type: functional
Sequence of DNA dC->dU-editing enzyme APOBEC-3A (P31941 whole entry): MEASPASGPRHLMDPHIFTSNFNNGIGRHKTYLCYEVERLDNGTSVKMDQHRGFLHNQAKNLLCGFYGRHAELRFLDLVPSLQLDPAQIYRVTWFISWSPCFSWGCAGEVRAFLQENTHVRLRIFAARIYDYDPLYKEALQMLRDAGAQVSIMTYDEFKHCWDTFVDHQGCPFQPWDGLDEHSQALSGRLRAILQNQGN

[24] = biological target: DNA dC->dU-editing enzyme APOBEC-3G (Homo sapiens, UniProt Q9HC16); assay: Dose Response confirmation of small molecule APOBEC3G DNA Deaminase Inhibitors via a fluorescence-based single-stranded DNA deaminase assay. [Related pubchem assays (depositor defined):AID493012, AID493028]; type: functional
Sequence of DNA dC->dU-editing enzyme APOBEC-3G (Q9HC16 whole entry): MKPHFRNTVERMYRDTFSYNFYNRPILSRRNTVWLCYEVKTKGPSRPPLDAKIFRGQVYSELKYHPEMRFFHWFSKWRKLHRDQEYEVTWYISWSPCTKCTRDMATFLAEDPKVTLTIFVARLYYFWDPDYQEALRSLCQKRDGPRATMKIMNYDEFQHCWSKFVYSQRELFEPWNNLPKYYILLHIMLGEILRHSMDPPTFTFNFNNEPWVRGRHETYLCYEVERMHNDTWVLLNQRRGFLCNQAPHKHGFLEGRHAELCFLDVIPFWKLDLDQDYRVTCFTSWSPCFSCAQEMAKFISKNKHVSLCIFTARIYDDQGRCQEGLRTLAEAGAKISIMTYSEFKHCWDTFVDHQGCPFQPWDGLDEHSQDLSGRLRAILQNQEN

Cytochrome P450 2C19 = Cytochrome P450 2C19 (Homo sapiens, UniProt P33261); assay: Cytochrome panel assay with activity outcomes. Panel member name: p450-cyp2c19 Compounds with AC50 equal or less than 10 uM are considered active; type: functional
Sequence of Cytochrome P450 2C19 (P33261 whole entry): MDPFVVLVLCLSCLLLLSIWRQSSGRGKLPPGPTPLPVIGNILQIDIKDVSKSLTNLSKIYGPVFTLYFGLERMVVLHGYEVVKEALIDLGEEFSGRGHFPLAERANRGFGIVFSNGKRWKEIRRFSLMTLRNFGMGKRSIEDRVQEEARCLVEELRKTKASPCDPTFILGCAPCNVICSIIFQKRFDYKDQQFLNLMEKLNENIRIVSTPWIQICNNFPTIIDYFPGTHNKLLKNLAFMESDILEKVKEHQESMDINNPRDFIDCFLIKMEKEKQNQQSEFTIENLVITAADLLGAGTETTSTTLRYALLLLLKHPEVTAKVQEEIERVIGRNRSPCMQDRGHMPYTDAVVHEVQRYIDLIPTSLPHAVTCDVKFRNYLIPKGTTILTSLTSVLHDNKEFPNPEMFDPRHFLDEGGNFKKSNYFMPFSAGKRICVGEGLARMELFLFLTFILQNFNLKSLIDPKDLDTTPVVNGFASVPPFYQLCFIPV

Cytochrome P450 3A4 = Cytochrome P450 3A4 (Homo sapiens, UniProt P08684);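 also: CYP3A4 tested as one member of a cytochrome P450 panel screen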
Sequence of Cytochrome P450 3A4 (P08684 whole entry): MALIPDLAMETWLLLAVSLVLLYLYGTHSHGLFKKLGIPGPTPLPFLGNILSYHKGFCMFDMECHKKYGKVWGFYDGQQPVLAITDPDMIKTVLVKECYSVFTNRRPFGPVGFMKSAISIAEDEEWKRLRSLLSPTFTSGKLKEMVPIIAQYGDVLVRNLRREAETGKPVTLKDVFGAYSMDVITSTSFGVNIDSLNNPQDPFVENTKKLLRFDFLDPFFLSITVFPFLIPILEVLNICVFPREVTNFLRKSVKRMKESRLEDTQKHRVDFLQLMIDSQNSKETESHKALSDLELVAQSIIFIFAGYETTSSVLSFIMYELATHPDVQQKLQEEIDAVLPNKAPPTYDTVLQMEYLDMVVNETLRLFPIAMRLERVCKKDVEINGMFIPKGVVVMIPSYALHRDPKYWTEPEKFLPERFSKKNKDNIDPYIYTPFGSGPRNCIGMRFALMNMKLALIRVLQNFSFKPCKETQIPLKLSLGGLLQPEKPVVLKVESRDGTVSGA

O=C(COc1ccc(C=NNC(=O)c2ccccc2O)cc1)Nc1ccccc1
IC50 [1]: > 100 µM (inactive) | IC50 [2]: > 100 µM (inactive)

CCn1c(CCNC(=O)c2ccc(OC)cc2)nnc1SCc1ccc(Cl)c(Cl)c1
IC50 [3]: > 100 µM (inactive) | IC50 [4]: > 100 µM (not active) | EC50 [5]: > 53 µM (inactive)

OCC1(CCc2ccccc2)CCN(Cc2ccc(OC(F)F)cc2)CC1
IC50 [3]: > 100 µM (inactive) | IC50 [4]: > 100 µM (not active)

CC(C)(C)c1ccc(C(=O)Nc2cccc3ncccc23)cc1
EC50 [6]: 8.65 µM (active) | EC50 [7]: 5.39 µM (active) | IC50 [1]: 1.14 µM (active) | IC50 [2]: 1.32 µM (active)

CCOC(=O)N/N=C/c1ccc(Oc2ccccc2)cc1
IC50 [3]: > 100 µM (inactive) | IC50 [4]: > 100 µM (not active)

O=C(c1ccc(Cn2c(=S)[nH]c3ccccc3c2=O)cc1)N1CCN(c2ccccn2)CC1
EC50 [8]: 12.4 µM (inconclusive) | EC50 (HEK293 [9]): 9 µM (active) | IC50 (HEK293 [10]): 6.05 µM (active) | EC50 [11]: 0.549 µM (active) | IC50 (HEK293 [12]): > 20 µM (inactive) | EC50 [13]: 5.49 µM (active) | IC50 (HEK293 [14]): 7.1 µM (active) | IC50 (HEK293 [15]): 13.9 µM (active) | EC50 [16]: > 180 µM (inactive) | IC50 (Tumor necrosis factor): 7.61 µM (active) | IC50 [17]: 5.3 µM (active) | EC50 [18]: > 150 µM (inactive) | AC50 [19]: 6.34 µM (active) | AC50 [20]: 59.2 µM (active) | AC50 [21]: 31.4 µM (active) | IC50 (HEK293 [22]): 12.6 µM (active)

Cc1nnc(S)n1/N=C/c1ccc(Br)o1
IC50 [23]: > 100 µM (inactive) | IC50 [24]: 6.93 µM (active) | AC50 (Cytochrome P450 2C19): inconclusive | AC50 (Cytochrome P450 3A4): 25.1 µM (inconclusive)

COc1ccccc1N=C1SC(C(=O)Nc2ccccc2)CC(=O)N1C (stereo unspecified)
IC50 [1]: > 100 µM (inactive) | IC50 [2]: > 100 µM (inactive)

Sc1nc(-c2ccccc2)cn1/N=C/c1ccncc1
IC50 [23]: > 100 µM (inactive) | IC50 [24]: 2.93 µM (active)

CCCCn1c(S)nnc1-c1ccc([N+](=O)[O-])cc1
IC50 [23]: > 100 µM (inactive) | IC50 [24]: 3.5 µM (active)

C=CCn1c(S)nnc1-c1sc2nc(C)cc(C)c2c1N
IC50 [23]: > 100 µM (inactive) | IC50 [24]: 3.28 µM (active)
